Experimental data taken from PubChem BioAssay AID248 (DTP/NCI, 2004).
Several values for one entry are separate records, joined by “and”; a condition that tells them apart may be missing. Equal entries are not always repeated. Inconclusive results and toxic doses are left out. Rule as the data show it: active = T/C of 150% or more; inactive = T/C below 125%.

Test system: L1210 leukemia ip in BDF1 mice, survival T/C
Assay: NCI In Vivo Anticancer Drug Screen. Data for tumor model L1210 Leukemia (intraperitoneal) in B6D2F1 (BDF1) mice
Conditions: endpoint: mean survival time, higher = longer survival
Outline: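 Mice bearing the transplanted tumor received compound or vehicle. Survival of the treated group was divided by that of the vehicle-treated control group to give the ratio.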

Measured: T/C

COc1ccc2[nH]ccc2c1
inactive: dose: 100.0 mg/kg/injection, schedule: Q01DX009 (ip), vehicle: other 90 % of control | dose: 100.0 mg/kg/injection, schedule: Q04DX003 (ip), vehicle: other 92 % of control | dose: 200.0 mg/kg/injection, schedule: Q01DX009 (ip), vehicle: other 104 % of control | dose: 200.0 mg/kg/injection, schedule: Q04DX003 (ip), vehicle: other 105 % of control | dose: 400.0 mg/kg/injection, schedule: Q01DX009 (ip), vehicle: other 88 % of control | dose: 400.0 mg/kg/injection, schedule: Q04DX003 (ip), vehicle: other 94 % of control

Cc1ccc(S(=O)(=O)Oc2ccc(-c3ccc(Br)cc3)cc2)cc1
inactive: dose: 75.0 mg/kg/injection, schedule: Q01DX001 (ip), vehicle: saline 97 % of control | dose: 150.0 mg/kg/injection, schedule: Q01DX001 (ip), vehicle: saline 105 % of control | dose: 300.0 mg/kg/injection, schedule: Q01DX001 (ip), vehicle: saline 105 % of control

O=C(c1ccccc1)c1cc(Cl)ccc1NC(=O)C(Cl)(Cl)Cl
inactive: dose: 50.0 mg/kg/injection, schedule: Q01DX001 (ip), vehicle: saline with Tween-80 97 % of control | dose: 100.0 mg/kg/injection, schedule: Q01DX001 (ip), vehicle: saline with Tween-80 102 % of control | dose: 100.0 mg/kg/injection, schedule: Q01DX009 (ip), vehicle: saline with Tween-80 95 % of control and 89 % of control | dose: 100.0 mg/kg/injection, schedule: Q04DX002 (ip), vehicle: saline with Tween-80 96 % of control and 104 % of control | dose: 200.0 mg/kg/injection, schedule: Q01DX001 (ip), vehicle: saline with Tween-80 92 % of control | dose: 200.0 mg/kg/injection, schedule: Q01DX009 (ip), vehicle: saline with Tween-80 95 % of control and 89 % of control | dose: 200.0 mg/kg/injection, schedule: Q04DX002 (ip), vehicle: saline with Tween-80 93 % of control and 96 % of control | dose: 400.0 mg/kg/injection, schedule: Q01DX001 (ip), vehicle: saline with Tween-80 91 % of control | dose: 400.0 mg/kg/injection, schedule: Q01DX009 (ip), vehicle: saline with Tween-80 89 % of control and 91 % of control | dose: 400.0 mg/kg/injection, schedule: Q04DX002 (ip), vehicle: saline with Tween-80 101 % of control and 89 % of control

O=c1[nH]c(NC2OC(CO)C(O)C2O)nc2c1ncn2C1(CO)CC(O)(CO)O1 (stereo unspecified)
inactive: dose: 100.0 mg/kg/injection, schedule: Q01DX005 (ip), vehicle: saline 93 % of control | dose: 200.0 mg/kg/injection, schedule: Q01DX005 (ip), vehicle: saline 98 % of control
